Source: article PMC10763615, “Identification and engineering of potent cyclic peptides with selective or promiscuous binding through biochemical profiling and bioinformatic data analysis” (RSC Chemical Biology, 2023)
Like-named read-outs stand apart in the source and are kept apart here. Positions of bridges follow the written chain, without caps; N, C: chain ends. Residues, ends and D or L forms follow the SMILES beside them.

Experiments:
Format in all cases: binding
FGF-R4 ECD = biological target: T1, FGF-R4 ECD (Homo sapiens, UniProt P22455); test: single concentration BLI of crude peptides; details: read-out: KD (4)
T1 construct: DNA constructs for the extracellular domain (ECD) of human FGF-; HPC4 (C); made in house; host or cells: HEK 293-6E
T1 sequence (P22455 22-369 limits assumed): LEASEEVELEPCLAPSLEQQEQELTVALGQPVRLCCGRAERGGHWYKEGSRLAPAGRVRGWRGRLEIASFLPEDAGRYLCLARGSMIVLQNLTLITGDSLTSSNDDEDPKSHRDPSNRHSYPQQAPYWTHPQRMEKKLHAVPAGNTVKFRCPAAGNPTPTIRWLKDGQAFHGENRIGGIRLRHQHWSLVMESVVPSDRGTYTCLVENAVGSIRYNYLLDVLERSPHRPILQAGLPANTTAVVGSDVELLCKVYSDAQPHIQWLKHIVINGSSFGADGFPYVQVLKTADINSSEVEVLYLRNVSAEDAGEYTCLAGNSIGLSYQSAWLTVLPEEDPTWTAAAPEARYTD
Summary of the method: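 Streptavidin biosensors carrying biotinylated FGF receptor ECD were immersed in peptide (~1 μM for crude single-point runs, a concentration series for purified peptides) and then in peptide-free buffer. KD was obtained by fitting the BLI association and dissociation curves.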

FGF-R3C ECD = biological target: T2, FGF-R3C ECD (Homo sapiens, UniProt P22607); test: biochemical; design: DNA constructs for the extracellular domain (ECD) of human FGF-; HPC4 (C); made in house; host or cells: HEK 293-6E
T2 sequence (P22607 23-375 limits assumed): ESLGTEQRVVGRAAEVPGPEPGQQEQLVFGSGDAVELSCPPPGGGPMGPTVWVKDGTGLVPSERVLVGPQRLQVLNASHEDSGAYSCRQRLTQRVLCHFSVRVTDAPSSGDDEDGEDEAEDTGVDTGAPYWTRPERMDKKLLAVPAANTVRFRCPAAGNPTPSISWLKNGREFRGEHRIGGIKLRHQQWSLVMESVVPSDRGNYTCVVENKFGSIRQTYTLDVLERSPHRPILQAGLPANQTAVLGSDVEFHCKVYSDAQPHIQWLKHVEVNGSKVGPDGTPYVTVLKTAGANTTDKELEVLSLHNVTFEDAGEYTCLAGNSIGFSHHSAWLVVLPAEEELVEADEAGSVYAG
Summary of the method: (§1)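 BLI, streptavidin sensors loaded with biotinylated receptor ECD. Single-point: ~1 μM crude peptide, PBS pH7.4/0.05% Tween-20/0.01% BSA; association then dissociation in buffer. KD corrected for UPLC-CAD-determined concentration.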

FGF-R1C ECD = biological target: T3, FGF-R1C ECD (Homo sapiens, UniProt P11362); test: biochemical; design: DNA constructs for the extracellular domain (ECD) of human FGF-; HPC4 (C); made in house; host or cells: HEK 293-6E
T3 sequence (P11362 22-376 limits assumed): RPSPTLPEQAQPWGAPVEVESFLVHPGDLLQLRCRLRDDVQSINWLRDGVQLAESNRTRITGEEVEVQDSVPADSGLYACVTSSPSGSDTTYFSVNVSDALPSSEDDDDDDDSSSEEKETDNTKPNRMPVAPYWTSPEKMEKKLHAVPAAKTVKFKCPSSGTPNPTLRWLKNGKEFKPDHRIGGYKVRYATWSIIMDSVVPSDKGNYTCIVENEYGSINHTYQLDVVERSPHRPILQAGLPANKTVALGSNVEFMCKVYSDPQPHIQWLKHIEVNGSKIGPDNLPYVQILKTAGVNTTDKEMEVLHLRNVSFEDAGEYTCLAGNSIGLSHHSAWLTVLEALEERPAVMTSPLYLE
Summary of the method: as §1

[1] = crude NNK peptides, single concentration BLI (Table S3)
[2] = crude T18 selection 1 (1:1:1) peptides, single concentration BLI (Table S4)

| Compound | Kd (FGF-R4 ECD; [1]) [µM] | Kd (FGF-R3C ECD) [µM] | Kd (FGF-R1C ECD) [µM] | Kd (FGF-R4 ECD; [2]) [µM] |
| --- | --- | --- | --- | --- |
| CC[C@H](C)[C@@H]1NC(=O)[C@@H](NC(=O)[C@H](CCSC)NC(C)=O)CSSC[C@@H](C(=O)NCC(=O)N[C@@H](CO)C(=O)NCC(=O)N[C@@H](CO)C(=O)N[C@@H](CC(=O)O)C(=O)N[C@@H](Cc2ccc(O)cc2)C(=O)N[C@@H](CCCCN)C(=O)N[C@@H](CC(=O)O)C(=O)N[C@@H](CC(=O)O)C(=O)N[C@@H](CC(=O)O)C(=O)N[C@@H](CC(=O)O)C(=O)N[C@@H](CCCCN)C(N)=O)NC(=O)[C@H](CCCNC(=N)N)NC(=O)CNC(=O)[C@H](CCCNC(=N)N)NC(=O)[C@H](CC(C)C)NC(=O)[C@H](C(C)C)NC(=O)[C@H](CCCCN)NC(=O)[C@H](Cc2ccc(O)cc2)NC(=O)[C@H](CC(C)C)NC(=O)[C@H](CC(C)C)NC1=O (Ac-MCILLYKVLRGRCGSGSDYKDDDDK-NH2; disulfide 2-13) | 0.128 | > 10 | > 10 |  |
| CC[C@H](C)[C@@H]1NC(=O)[C@@H](NC(=O)[C@H](CCSC)NC(C)=O)CSSC[C@@H](C(=O)NCC(=O)N[C@@H](CO)C(=O)NCC(=O)N[C@@H](CO)C(=O)N[C@@H](CC(=O)O)C(=O)N[C@@H](Cc2ccc(O)cc2)C(=O)N[C@@H](CCCCN)C(=O)N[C@@H](CC(=O)O)C(=O)N[C@@H](CC(=O)O)C(=O)N[C@@H](CC(=O)O)C(=O)N[C@@H](CC(=O)O)C(=O)N[C@@H](CCCCN)C(N)=O)NC(=O)[C@H](Cc2c[nH]cn2)NC(=O)[C@H](CO)NC(=O)[C@H]([C@@H](C)CC)NC(=O)[C@H](CC(C)C)NC(=O)[C@H](Cc2ccc(O)cc2)NC(=O)[C@H](Cc2ccc(O)cc2)NC(=O)[C@H](Cc2ccccc2)NC(=O)[C@H](CC(C)C)NC(=O)[C@H](Cc2ccc(O)cc2)NC(=O)[C@H](CCCNC(=N)N)NC1=O (Ac-MCIRYLFYYLISHCGSGSDYKDDDDK-NH2; disulfide 2-14) |  | > 10 | > 10 | 0.002 |
| CC[C@H](C)[C@@H]1NC(=O)[C@@H](NC(=O)[C@H](CCSC)NC(C)=O)CSSC[C@@H](C(=O)NCC(=O)N[C@@H](CO)C(=O)NCC(=O)N[C@@H](CO)C(=O)N[C@@H](CC(=O)O)C(=O)N[C@@H](Cc2ccc(O)cc2)C(=O)N[C@@H](CCCCN)C(=O)N[C@@H](CC(=O)O)C(=O)N[C@@H](CC(=O)O)C(=O)N[C@@H](CC(=O)O)C(=O)N[C@@H](CC(=O)O)C(=O)N[C@@H](CCCCN)C(N)=O)NC(=O)[C@@H]2CCCN2C(=O)[C@H](CCCNC(=N)N)NC(=O)[C@H](Cc2c[nH]c3ccccc23)NC(=O)[C@H](CCC(=O)O)NC(=O)[C@H](CCC(=O)O)NC(=O)[C@H](Cc2c[nH]c3ccccc23)NC(=O)[C@H](CCCCN)NC(=O)[C@H](CC(N)=O)NC(=O)[C@H](CCCCN)NC(=O)[C@H](CCCNC(=N)N)NC(=O)[C@H]([C@@H](C)O)NC1=O (Ac-MCITRKNKWEEWRPCGSGSDYKDDDDK-NH2; disulfide 2-15) |  | > 10 | > 10 | > 10 |
| CC[C@H](C)[C@@H]1NC(=O)[C@@H](NC(=O)[C@H](CCSC)NC(C)=O)CSSC[C@@H](C(=O)NCC(=O)N[C@@H](CO)C(=O)NCC(=O)N[C@@H](CO)C(=O)N[C@@H](CC(=O)O)C(=O)N[C@@H](Cc2ccc(O)cc2)C(=O)N[C@@H](CCCCN)C(=O)N[C@@H](CC(=O)O)C(=O)N[C@@H](CC(=O)O)C(=O)N[C@@H](CC(=O)O)C(=O)N[C@@H](CC(=O)O)C(=O)N[C@@H](CCCCN)C(N)=O)NC(=O)[C@H](C(C)C)NC(=O)[C@H](C)NC(=O)[C@H](Cc2c[nH]c3ccccc23)NC(=O)[C@H](Cc2ccccc2)NC(=O)[C@H](CC(=O)O)NC(=O)[C@H](CO)NC(=O)[C@H](CC(C)C)NC(=O)[C@H](CCCNC(=N)N)NC(=O)[C@H](Cc2ccc(O)cc2)NC1=O (Ac-MCIYRLSDFWAVCGSGSDYKDDDDK-NH2; disulfide 2-13) | 0.133 | 0.049 | 0.021 |  |
| CC[C@H](C)[C@@H]1NC(=O)[C@H](CCC(=O)O)NC(=O)[C@H](Cc2ccc(O)cc2)NC(=O)[C@H](CCC(=O)O)NC(=O)[C@H](CCCCN)NC(=O)[C@@H](NC(=O)[C@H](CCSC)NC(C)=O)CSSC[C@@H](C(=O)NCC(=O)N[C@@H](CO)C(=O)NCC(=O)N[C@@H](CO)C(=O)N[C@@H](CC(=O)O)C(=O)N[C@@H](Cc2ccc(O)cc2)C(=O)N[C@@H](CCCCN)C(=O)N[C@@H](CC(=O)O)C(=O)N[C@@H](CC(=O)O)C(=O)N[C@@H](CC(=O)O)C(=O)N[C@@H](CC(=O)O)C(=O)N[C@@H](CCCCN)C(N)=O)NC(=O)[C@H](Cc2ccc(O)cc2)NC(=O)[C@H](CCC(N)=O)NC(=O)[C@H](CC(C)C)NC(=O)[C@H](CCCCN)NC(=O)[C@H](Cc2ccc(O)cc2)NC(=O)[C@H](Cc2c[nH]c3ccccc23)NC(=O)[C@H](CC(C)C)NC1=O (Ac-MCKEYEILWYKLQYCGSGSDYKDDDDK-NH2; disulfide 2-15) |  | > 10 | > 10 | 0.017 |
| CC[C@H](C)[C@@H]1NC(=O)[C@H](CCCCN)NC(=O)[C@@H](NC(=O)[C@H](CCSC)NC(C)=O)CSSC[C@@H](C(=O)NCC(=O)N[C@@H](CO)C(=O)NCC(=O)N[C@@H](CO)C(=O)N[C@@H](CC(=O)O)C(=O)N[C@@H](Cc2ccc(O)cc2)C(=O)N[C@@H](CCCCN)C(=O)N[C@@H](CC(=O)O)C(=O)N[C@@H](CC(=O)O)C(=O)N[C@@H](CC(=O)O)C(=O)N[C@@H](CC(=O)O)C(=O)N[C@@H](CCCCN)C(N)=O)NC(=O)[C@H](C(C)C)NC(=O)[C@H](Cc2c[nH]c3ccccc23)NC(=O)[C@H](Cc2c[nH]c3ccccc23)NC(=O)[C@H](Cc2ccccc2)NC(=O)[C@H](CCCCN)NC(=O)[C@H](Cc2c[nH]cn2)NC(=O)[C@H](CC(=O)O)NC(=O)[C@H](C(C)C)NC(=O)[C@H](Cc2ccc(O)cc2)NC(=O)[C@H](Cc2c[nH]c3ccccc23)NC1=O (Ac-MCKIWYVDHKFWWVCGSGSDYKDDDDK-NH2; disulfide 2-15) |  | > 10 | > 10 | 0.002 |
| CC[C@H](C)[C@@H]1NC(=O)[C@H](CCC(=O)O)NC(=O)[C@H](CCCNC(=N)N)NC(=O)[C@H](CCCCN)NC(=O)[C@@H](NC(=O)[C@H](CCSC)NC(C)=O)CSSC[C@@H](C(=O)NCC(=O)N[C@@H](CO)C(=O)NCC(=O)N[C@@H](CO)C(=O)N[C@@H](CC(=O)O)C(=O)N[C@@H](Cc2ccc(O)cc2)C(=O)N[C@@H](CCCCN)C(=O)N[C@@H](CC(=O)O)C(=O)N[C@@H](CC(=O)O)C(=O)N[C@@H](CC(=O)O)C(=O)N[C@@H](CC(=O)O)C(=O)N[C@@H](CCCCN)C(N)=O)NC(=O)[C@H](Cc2ccccc2)NC(=O)[C@H](C(C)C)NC(=O)[C@H](CC(C)C)NC(=O)[C@H](Cc2c[nH]c3ccccc23)NC(=O)[C@H](Cc2ccc(O)cc2)NC(=O)[C@H](CCCCN)NC1=O (Ac-MCKREIKYWLVFCGSGSDYKDDDDK-NH2; disulfide 2-13) |  | > 10 | > 10 | 0.008 |
| CC[C@H](C)[C@@H]1NC(=O)[C@H](CCCCN)NC(=O)[C@H](Cc2ccc(O)cc2)NC(=O)[C@H](Cc2ccc(O)cc2)NC(=O)[C@H]([C@@H](C)CC)NC(=O)[C@H](CC(C)C)NC(=O)[C@H](Cc2c[nH]cn2)NC(=O)[C@H](CCCNC(=N)N)NC(=O)[C@H](CCCCN)NC(=O)[C@@H](NC(=O)[C@H](CCSC)NC(C)=O)CSSC[C@@H](C(=O)NCC(=O)N[C@@H](CO)C(=O)NCC(=O)N[C@@H](CO)C(=O)N[C@@H](CC(=O)O)C(=O)N[C@@H](Cc2ccc(O)cc2)C(=O)N[C@@H](CCCCN)C(=O)N[C@@H](CC(=O)O)C(=O)N[C@@H](CC(=O)O)C(=O)N[C@@H](CC(=O)O)C(=O)N[C@@H](CC(=O)O)C(=O)N[C@@H](CCCCN)C(N)=O)NC(=O)[C@H](CCCNC(=N)N)NC(=O)[C@H](C)NC1=O (Ac-MCKRHLIYYKIARCGSGSDYKDDDDK-NH2; disulfide 2-14) |  | 1.54 | > 10 | 0.001 |
